Results: publication PMC11149917, “Translational and Therapeutic Evaluation of RAS-GTP Inhibition by RMC-6236 in RAS-Driven Cancers” (Cancer Discovery, 2024)
Read-outs that look alike come from different tables or passages of the source.

Test: Mouse blood and tissue PK (LC/MS-MS)
Format: in vivo
Settings: mouse, tumor, oral
Protocol: For single-dose PKPD study, mice were randomized and assigned into groups (n = 3/dose/time point). […] Blood and tissues, including the tumor, brain, colon, ear skin, and muscle, were harvested at indicated time points. […] The whole blood, tumor, brain, colon, and ear skin concentrations of RMC-6236 were determined using liquid chromatography–tandem mass spectrometry (LC/MS-MS) methods. […] After thorough mixing and centrifugation, the supernatant was diluted with water or directly analyzed on a Sciex 5500 or Sciex 6500+ triple quadrupole mass spectrometer equipped with an ACQUITY or Shimadzu UPLC system. […] Bioanalysis on blood and tissue samples from xenograft models was run at Pharmaron and Wuxi AppTec. Concentrations reported as below the quantification limit were treated as zero for PK analysis. PK parameters were calculated by noncompartmental analysis of the concentration–time profiles using Phoenix WinNonLin (version 8.3 Certara). Apparent terminal elimination half-life (t1/2) values were calculated as ln(2)/k, where k represents the terminal elimination rate constant. Area under the concentration–time curve (AUC) values were estimated using a linear trapezoidal method. AUClast values were calculated from the dosing time to the last quantifiable concentration. Maximum concentration (Cmax) was recorded as observed.

**Q.** What does the source list for `CCn1c(-c2cc(N3CCN(C)CC3)cnc2[C@H](C)OC)c2c3cc(ccc31)-c1csc(n1)C[C@H](NC(=O)[C@H]1C[C@@H]1C)C(=O)N1CCC[C@H](N1)C(=O)OCC(C)(C)C2` [RMC-6236]?
**A.** concentration at 4 h (25 mg/kg, HPAC #4, 25 mg/kg, individual animals, read-out: RMC-6236 (nM) Tumor): 4090 nM; concentration at 8 h (25 mg/kg, HPAC #4, 25 mg/kg, 8h, individual animals, read-out: RMC-6236 (nM) Tumor): 4080 nM; concentration at 24 h (25 mg/kg, HPAC #4, 25 mg/kg, 24h, individual animals, read-out: RMC-6236 (nM) Tumor): 1260 nM; concentration at 8 h (25 mg/kg, KP-4, study KP-4 #3, 25 mg/kg, 8h, read-out: RMC-6236 (nM) Tumor): 3260 nM; concentration at 24 h (25 mg/kg, KP-4, study KP-4 #3, 25 mg/kg, 24h, read-out: RMC-6236 (nM) Tumor): 758 nM; concentration at 8 h (25 mg/kg, KP-4, study KP-4 #4, 25 mg/kg, 8h, read-out: RMC-6236 (nM) Tumor): 3030 nM; concentration at 24 h (25 mg/kg, KP-4, study KP-4 #4, 25 mg/kg, 24h, read-out: RMC-6236 (nM) Tumor): 840 nM; concentration at 48 h (25 mg/kg, KP-4, study KP-4 #4, 25 mg/kg, 48h, read-out: RMC-6236 (nM) Tumor): 312 nM; concentration at 4 h (25 mg/kg, KP-4, study KP-4 #5, 25 mg/kg, read-out: RMC-6236 (nM) Tumor): 2460 nM; concentration at 24 h (25 mg/kg, KP-4, study KP-4 #5, 25 mg/kg, 24h, read-out: RMC-6236 (nM) Tumor): 859 nM; concentration at 48 h (25 mg/kg, KP-4, study KP-4 #5, 25 mg/kg, 48h, read-out: RMC-6236 (nM) Tumor): 281 nM; concentration at 8 h (25 mg/kg, KP-4, study KP-4 #6, 25 mg/kg, 8h, read-out: RMC-6236 (nM) Tumor): 4160 nM; concentration at 24 h (25 mg/kg, KP-4, study KP-4 #6, 25 mg/kg, 24h, read-out: RMC-6236 (nM) Tumor): 1500 nM; concentration at 48 h (25 mg/kg, KP-4, study KP-4 #6, 25 mg/kg, 48h, read-out: RMC-6236 (nM) Tumor): 739 nM; concentration at 1 h (25 mg/kg, Model Development Dataset, 25mg/kg_study8, read-out: Tumor Concentration): 457 nM; concentration at 2 h (25 mg/kg, Model Development Dataset, 25mg/kg_study8, 2 h, read-out: Tumor Concentration): 1530 nM; concentration at 8 h (25 mg/kg, Model Development Dataset, 25mg/kg_study8, 8 h, read-out: Tumor Concentration): 2320 nM; concentration at 24 h (25 mg/kg, Model Development Dataset, 25mg/kg_study8, 24 h, read-out: Tumor Concentration): 995 nM; concentration at 240 h (25 mg/kg, Model Development Dataset, 25mg/kg_study8r (doses every 24 h, 0-[…]), read-out: Tumor Concentration): 410 nM; concentration at 1 h (25 mg/kg, Model Validation Dataset, 25mg/kg_study6, read-out: Tumor Concentration): 358 nM; concentration at 8 h (25 mg/kg, Model Validation Dataset, 25mg/kg_study6, 8 h, read-out: Tumor Concentration): 2570 nM; concentration at 24 h (25 mg/kg, Model Validation Dataset, 25mg/kg_study6, 24 h, read-out: Tumor Concentration): 890 nM; concentration at 48 h (25 mg/kg, Model Validation Dataset, 25mg/kg_study6, 48 h, read-out: Tumor Concentration): 690 nM; concentration at 72 h (25 mg/kg, Model Validation Dataset, 25mg/kg_study6, 72 h): 433 nM; concentration at 8 h (25 mg/kg, NCI-H441 xenograft tumor, study NCI-H441#6, 25 mg/kg, 8h, read-out: RMC-6236 (nM) Tumor): 2380 nM; concentration at 24 h (25 mg/kg, NCI-H441 xenograft tumor, study NCI-H441#6, 25 mg/kg, 24h, read-out: RMC-6236 (nM) Tumor): 989 nM; concentration at 48 h (25 mg/kg, NCI-H441 xenograft tumor, study NCI-H441#6, 25 mg/kg, 48h, read-out: RMC-6236 (nM) Tumor): 641 nM; concentration at 8 h (25 mg/kg, NCI-H441 xenograft tumor, study NCI-H441#8, 25 mg/kg, 8h, read-out: RMC-6236 (nM) Tumor): 2740 nM; concentration at 24 h (25 mg/kg, NCI-H441 xenograft tumor, study NCI-H441#8, 25 mg/kg, 24h, read-out: RMC-6236 (nM) Tumor): 1080 nM; concentration at 4 h (25 mg/kg, sheet colon, KP-4, KP-4 #5, 25 mg/kg, read-out: RMC-6236 (nM) Tumor): 5860 nM; concentration at 24 h (40 mg/kg, KP-4, study KP-4 #4, 40 mg/kg, 24h, read-out: RMC-6236 (nM) Tumor): 1620 nM; concentration at 48 h (40 mg/kg, KP-4, study KP-4 #4, 40 mg/kg, 48h, read-out: RMC-6236 (nM) Tumor): 661 nM; concentration at 1 h (40 mg/kg, Model Development Dataset, 40mg/kg_study8, read-out: Tumor Concentration): 947 nM; concentration at 2 h (40 mg/kg, Model Development Dataset, 40mg/kg_study8, 2 h, read-out: Tumor Concentration): 3090 nM; concentration at 8 h (40 mg/kg, Model Development Dataset, 40mg/kg_study8, 8 h, read-out: Tumor Concentration): 3380 nM; concentration at 24 h (40 mg/kg, Model Development Dataset, 40mg/kg_study8, 24 h, read-out: Tumor Concentration): 1810 nM; concentration at 240 h (40 mg/kg, Model Development Dataset, 40mg/kg_study8r (doses every 24 h, 0-[…]), read-out: Tumor Concentration): 876 nM; concentration at 2 h (40 mg/kg, NCI-H441 xenograft tumor, study NCI-H441#8, 40 mg/kg, 2h, read-out: RMC-6236 (nM) Tumor): 3260 nM; concentration at 8 h (40 mg/kg, NCI-H441 xenograft tumor, study NCI-H441#8, 40 mg/kg, 8h, read-out: RMC-6236 (nM) Tumor): 2820 nM; concentration at 4 h (50 mg/kg, HPAC #3, 50 mg/kg, individual animals, read-out: RMC-6236 (nM) Tumor): 4620 nM; concentration at 8 h (50 mg/kg, HPAC #3, 50 mg/kg, 8h, individual animals, read-out: RMC-6236 (nM) Tumor): 6090 nM; concentration at 24 h (50 mg/kg, HPAC #3, 50 mg/kg, 24h, individual animals, read-out: RMC-6236 (nM) Tumor): 3810 nM; concentration at 48 h (50 mg/kg, HPAC #3, 50 mg/kg, 48h, individual animals, read-out: RMC-6236 (nM) Tumor): 1440 nM; concentration at 8 h (50 mg/kg, KP-4, study KP-4 #3, 50 mg/kg, 8h, read-out: RMC-6236 (nM) Tumor): 5580 nM; concentration at 24 h (50 mg/kg, KP-4, study KP-4 #3, 50 mg/kg, 24h, read-out: RMC-6236 (nM) Tumor): 2070 nM; concentration at 48 h (50 mg/kg, KP-4, study KP-4 #3, 50 mg/kg, 48h, read-out: RMC-6236 (nM) Tumor): 489 nM; concentration at 1 h (50 mg/kg, Model Validation Dataset, 50mg/kg_study6, read-out: Tumor Concentration): 1310 nM; concentration at 8 h (50 mg/kg, Model Validation Dataset, 50mg/kg_study6, 8 h, read-out: Tumor Concentration): 4800 nM
